# Data from patent US8058475B2, “Substituted cyclohexylmethyl compounds” (Gruenenthal GmbH, priority 2005, dated 2011).
# Like-named read-outs stand apart in the source and are kept apart here.
# Molecular target: human μ-opiate receptor (Homo sapiens, UniProt P35372)
# Experiment: Affinity for the human μ-opiate receptor ([3H]-naloxone displacement, SPA, CHO-K1 membrane preparation)
# Format: binding
# Conditions: for inhibition at 1 µM: read-out: μ-Opioid receptor, % inhibition [1 μM]; for Ki: read-out: μ-Opioid receptor, Ki
# [1] = 1 μM test substance, inhibition of specific [3H]-naloxone binding
# Chain of human μ-opiate receptor (P35372 whole entry): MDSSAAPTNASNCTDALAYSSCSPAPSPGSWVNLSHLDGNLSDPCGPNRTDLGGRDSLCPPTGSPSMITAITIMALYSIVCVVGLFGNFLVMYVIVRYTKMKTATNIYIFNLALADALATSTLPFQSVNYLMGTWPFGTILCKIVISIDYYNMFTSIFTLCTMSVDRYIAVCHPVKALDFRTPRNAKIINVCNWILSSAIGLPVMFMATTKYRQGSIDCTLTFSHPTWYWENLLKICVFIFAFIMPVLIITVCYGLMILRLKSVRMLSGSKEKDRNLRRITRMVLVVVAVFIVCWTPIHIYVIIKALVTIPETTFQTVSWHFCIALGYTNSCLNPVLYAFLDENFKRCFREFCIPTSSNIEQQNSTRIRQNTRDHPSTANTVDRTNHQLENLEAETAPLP
Compound,inhibition at 1 µM,Ki,inhibition at 1 µM [1],"μ-Opioid receptor, % inhibition [1 μM]","μ-Opioid receptor, % inhibition [1 μM] [1]"
"CN(C)C(c1ccccc1)C1CCC(CCNC(=O)C(c2ccccc2)c2ccccc2)CC1 (stereo not drawn) [compound 448, N-{2-[4-(dimethylamino-phenyl-methyl)-cyclohexyl]-ethyl}-2,2-diphenyl-acetamide]",95%,33 nM,–,–,–
"CN(C)C(c1cccc(F)c1)C1CCC(O)(Cc2ccccc2)CC1 (stereo not drawn) [compound 152, 1-benzyl-4-[dimethylamino-(3-fluoro-phenyl)-methyl]-cyclohexanol]",–,–,63%,–,–
"CN(C)C(c1cccs1)C1CCC(NC(=O)c2cccnc2Sc2ccc(Cl)cc2)CC1 (stereo not drawn) [compound 218, 2-(4-chloro-phenylsulfanyl)-N-[4-(dimethylamino-thiophen-2-yl-methyl)-cyclohexyl]-nicotinamide]",89%,–,–,–,–
"CCC(C)C(=O)NCC1CCC(C(c2ccccc2)N(C)C)CC1 (stereo not drawn) [compound 387, N-[4-(dimethylamino-phenyl-methyl)-cyclohexylmethyl]-2-methyl-butyramide]",81%,70 nM,–,–,–
"COc1cccc(OC)c1C(=O)NC1CCC(C(c2ccccc2)N(C)C)CC1 (stereo not drawn) [compound 287, N-[4-(dimethylamino-phenyl-methyl)-cyclohexyl]-2,6-dimethoxy-benzamide]",71%,150 nM,–,–,–
"Cc1cc(C2(O)CCC(C(c3ccccc3)N(C)C)CC2)ccc1F (stereo not drawn) [compound 151, 4-(dimethylamino-phenyl-methyl)-1-(4-fluoro-3-methyl-phenyl)-cyclohexanol]",–,–,71%,–,–
"CN(C)C(c1ccccc1)C1CCC(NC(=O)c2cncc(Br)c2)CC1 (stereo not drawn) [compound 259, 5-bromo-N-[4-(dimethylamino-phenyl-methyl)-cyclohexyl]-nicotinamide]",–,62 nM,–,79%,–
"CN(C)C(c1ccccc1)C1CCC(CNC(=O)c2cccnc2Oc2ccc(Cl)cc2)CC1 (single isomer, unassigned) [compound 383, 2-(4-chloro-phenoxy)-N-[4-(dimethylamino-phenyl-methyl)-cyclohexylmethyl]-nicotinamide]",–,86 nM,–,83%,–
"CCC(C)C(=O)NCC1CCC(C(c2cccc(F)c2)N(C)C)CC1 (single isomer, unassigned) [compound 342, N-{4-[dimethylamino-(3-fluoro-phenyl)-methyl]-cyclohexylmethyl}-2-methyl-butyramide]",90%,28 nM,–,–,–
"CCC(C(=O)NCCC1CCC(C(c2ccc(Cl)cc2)N(C)C)CC1)c1ccccc1 (stereo not drawn) [compound 455, N-(2-{4-[(4-chloro-phenyl)-dimethylamino-methyl]-cyclohexyl}-ethyl)-2-phenyl-butyramide]",81%,69 nM,–,–,–
"Cc1c(S(=O)(=O)c2ccc(Cl)cc2)csc1C(=O)NC1CCC(C(c2ccccc2)N(C)C)CC1 (stereo not drawn) [compound 253, 4-(4-chloro-benzenesulfonyl)-3-methyl-thiophene-2-carboxylic acid [4-(dimethylamino-phenyl-methyl)-cyclohexyl]-amide]",–,79 nM,–,80%,–
"COc1ccccc1C(=O)NCC1CCC(C(c2cccs2)N(C)C)CC1 (stereo not drawn) [compound 305, N-[4-(dimethylamino-thiophen-2-yl-methyl)-cyclohexylmethyl]-2-methoxy-benzamide]",98%,12 nM,–,–,–
"COc1cccc(CC2(O)CCC(C(c3cccc(F)c3)N(C)C)CC2)c1 (stereo not drawn) [compound 156, 4-[dimethylamino-(3-fluoro-phenyl)-methyl]-1-(3-methoxy-benzyl)-cyclohexanol]",–,–,73%,–,–
"CN(C)C(c1cccc(F)c1)C1CCC(CCNC(=O)c2cc(F)cc(F)c2)CC1 (stereo not drawn) [compound 435, N-(2-{4-[dimethylamino-(3-fluoro-phenyl)-methyl]-cyclohexyl}-ethyl)-3,5-difluoro-benzamide]",99%,14 nM,–,–,–
"CN(C)C(c1cccs1)C1CCC(NC(=O)Cc2ccc(Cl)cc2)CC1 (stereo not drawn) [compound 219, 2-(4-chloro-phenyl)-N-[4-(dimethylamino-thiophen-2-yl-methyl)-cyclohexyl]-acetamide]",89%,56 nM,–,–,–
"CN(C)C(c1ccccc1)C1CCC(CCNC(=O)c2cccc(C#N)c2)CC1 (stereo not drawn) [compound 477, 3-cyano-N-{2-[4-(dimethylamino-phenyl-methyl)-cyclohexyl]-ethyl}-benzamide]",96%,13 nM,–,–,–
"Cc1ccc(Oc2ncccc2C(=O)NCC2CCC(C(c3cccs3)N(C)C)CC2)cc1 (single isomer, unassigned) [compound 389, N-[4-(dimethylamino-thiophen-2-yl-methyl)-cyclohexylmethyl]-2-p-tolyloxy-nicotinamide]",81%,58 nM,–,–,–
"CN(C)C(c1cccs1)C1CCC(CNC(=O)c2c(F)cccc2F)CC1 (stereo not drawn) [compound 313, N-[4-(dimethylamino-thiophen-2-yl-methyl)-cyclohexylmethyl]-2,6-difluoro-benzamide]",97%,35 nM,–,–,–

Compound,inhibition at 1 µM,Ki,inhibition at 1 µM [1],"μ-Opioid receptor, % inhibition [1 μM]","μ-Opioid receptor, % inhibition [1 μM] [1]"
"CCCCCC1(O)CCC(C(c2ccc(Cl)cc2)N(C)C)CC1 (stereo not drawn) [compound 170, 4-[(4-chloro-phenyl)-dimethylamino-methyl]-1-pentyl-cyclohexanol]",–,–,–,–,63%
"Cc1ccc(Oc2ncccc2C(=O)NCC2CCC(C(c3ccc(Cl)cc3)N(C)C)CC2)cc1 (stereo not drawn) [compound 382, N-{4-[(4-chloro-phenyl)-dimethylamino-methyl]-cyclohexylmethyl}-2-p-tolyloxy-nicotinamide]",83%,–,–,–,–
"CN(C)C(c1ccc(Cl)cc1)C1CCC(CNC(=O)CC(C)(C)C)CC1 (stereo not drawn) [compound 309, N-{4-[(4-chloro-phenyl)-dimethylamino-methyl]-cyclohexylmethyl}-3,3-dimethyl-butyramide]",98%,5.6 nM,–,–,–
"CCn1nc(C)c(Br)c1C(=O)NC1CCC(C(c2ccccc2)N(C)C)CC1 (stereo not drawn) [compound 268, 4-bromo-2-ethyl-5-methyl-2H-pyrazole-3-carboxylic acid [4-(dimethylamino-phenyl-methyl)-cyclohexyl]-amide]",76%,86 nM,–,–,–
"CN(C)C(c1ccccc1)C1CCC(CCNC(=O)c2c(F)cccc2F)CC1 (stereo not drawn) [compound 461, N-{2-[4-(dimethylamino-phenyl-methyl)-cyclohexyl]-ethyl}-2,6-difluoro-benzamide]",100%,17 nM,–,–,–
"COc1cccc(CC2(O)CCC(C(c3ccc(Cl)cc3)N(C)C)CC2)c1 (stereo not drawn) [compound 173, 4-[(4-chloro-phenyl)-dimethylamino-methyl]-1-(3-methoxy-benzyl)-cyclohexanol]",–,–,84%,–,–
"CC(Oc1ccccc1)C(=O)NCC1CCC(C(c2cccs2)N(C)C)CC1 (stereo not drawn) [compound 304, N-[4-(dimethylamino-thiophen-2-yl-methyl)-cyclohexylmethyl]-2-phenoxy-propionamide]",99%,15 nM,–,–,–
"CN(C)C(c1ccccc1)C1CCC(CCNC(=O)c2cccnc2Sc2ccc(Cl)cc2)CC1 (single isomer, unassigned) [compound 470, 2-(4-chloro-phenylsulfanyl)-N-{2-[4-(dimethylamino-phenyl-methyl)-cyclohexyl]-ethyl}-nicotinamide]",91%,71 nM,–,–,–
"COc1cccc(C(=O)NCC2CCC(C(c3ccc(Cl)cc3)N(C)C)CC2)c1 (stereo not drawn) [compound 393, N-{4-[(4-chloro-phenyl)-dimethylamino-methyl]-cyclohexylmethyl}-3-methoxy-benzamide]",80%,44 nM,–,–,–
"CCCC(=O)N(c1ccccc1)C1CCC(C(c2ccccc2)N(C)C)CC1 (stereo not drawn) [compound 180, N-(4-((dimethylamino)(phenyl)methyl)cyclohexyl)-N-phenylbutyramide]",90%,–,–,–,–
"CN(C)C(c1cccs1)C1CCC(CCNC(=O)c2csc3ccccc23)CC1 (stereo not drawn) [compound 465, benzo[b]thiophene-3-carboxylic acid {2-[4-(dimethylamino-thiophen-2-yl-methyl)-cyclohexyl]-ethyl}-amide]",99%,3.1 nM,–,–,–
"CCC(C(=O)NCC1CCC(C(c2ccccc2)N(C)C)CC1)c1ccccc1 (stereo not drawn) [compound 321, N-[4-(dimethylamino-phenyl-methyl)-cyclohexylmethyl]-2-phenyl-butyramide]",95%,22 nM,–,–,–
"CN(C)C(c1ccccc1)C1CCC(CNC(=O)c2cccc(C(F)(F)F)c2)CC1 (single isomer, unassigned) [compound 333, N-[4-(dimethylamino-phenyl-methyl)-cyclohexylmethyl]-3-trifluoromethyl-benzamide]",–,17 nM,–,92%,–
"CN(C)C(c1ccccc1)C1CCC(CCNC(=O)COCc2ccccc2)CC1 (stereo not drawn) [compound 450, 2-benzyloxy-N-{2-[4-(dimethylamino-phenyl-methyl)-cyclohexyl]-ethyl}-acetamide]",89%,81 nM,–,–,–
"Cc1oc(-c2ccccc2)cc1C(=O)NCC1CCC(C(c2ccc(Cl)cc2)N(C)C)CC1 (stereo not drawn) [compound 330, 2-methyl-5-phenyl-furan-3-carboxylic acid {4-[(4-chloro-phenyl)-dimethylamino-methyl]-cyclohexylmethyl}-amide]",94%,39 nM,–,–,–
"Cc1oc(-c2ccc(Cl)cc2)cc1C(=O)NC1CCC(C(c2cccs2)N(C)C)CC1 (stereo not drawn) [compound 229, 5-(4-chloro-phenyl)-2-methyl-furan-3-carboxylic acid [4-(dimethylamino-thiophen-2-yl-methyl)-cyclohexyl]-amide]",86%,39 nM,–,–,–
"CN(C)C(c1cccc(F)c1)C1CCC(NC(=O)c2ccc3nsnc3c2)CC1 (stereo not drawn) [compound 290, benzo[1,2,5]thiadiazole-5-carboxylic acid {4-[dimethylamino-(3-fluoro-phenyl)-methyl]-cyclohexyl}-amide]",70%,–,–,–,–
"CN(C)C(c1ccccc1)C1CCC(NC(=O)c2cc(F)cc(C(F)(F)F)c2)CC1 (stereo not drawn) [compound 190, N-[4-(dimethylamino-phenyl-methyl)-cyclohexyl]-3-fluoro-5-trifluoromethyl-benzamide]",99%,25 nM,–,–,–
